Key:
Type in all cases: cell-based, human
[1] = test system: Caco-2 cell monolayer; assay: Transepithelial electrical resistance (TEER) of Caco-2 monolayers after DON-induced impairment
Description: (§1) Caco-2 cells were used according to established methods. In brief: cells were cultured in Dulbecco's modified Eagle medium (DMEM) and seeded at a density of 0.3×10^5 cells into 0.3 cm^2 high pore density (0.4 μm) inserts with a polyethylene terephthalate membrane (BD Biosciences, Franklin Lakes, NJ, USA) placed in a 24-well plate. The Caco-2 cells were maintained in a humidified atmosphere of 95 air and 5% CO2 at 37° C. After 17-19 days of culturing, a confluent monolayer was obtained with a mean Transepithelial electrical resistance (TEER) exceeding 400 Ωcm^2 measured by a Millicell-Electrical Resistance System voltohm-meter (Millipore, Temecula, CA, USA).
(§2) Caco-2 cell monolayers were thus grown in a transwell system, which is a model for intestinal barrier function. The monolayers were pretreated for 24 h with different GLs, including beta3′-GL, alpha3′-GL, beta4′-GL and beta6′-GL in a concentration of 0.75 wt % of the GL, before being exposed to the fungal toxin deoxynivalenol (DON), which is a trigger and model compound to impair intestinal barrier. DON was diluted to a final concentration of […] in complete cell medium and added to the apical side as well as to the basolateral side of the transwell inserts. […] Incubation with DON was 24 h.
Measurements of the transepithelial electrical resistance (TEER) and lucifer yellow (LY) permeability were conducted to investigate barrier integrity. For TEER measurements a Millicel-ERS voltohmmeter connected to a pair of chopsticks electrodes was used to measure the TEER values. Results are expressed as a percentage of the initial value. For paracellular tracer flux assay the membrane impermeable lucifer yellow (LY) (Sigma, St Luis, MO, USA) was added in a concentration of 16 μg/ml to the apical compartment in the transwell plate for 4 h, and the paracellular flux was determined by measuring the fluorescence intensity in the basolateral compartment with a spectrophotofluorimeter (FLUOstar Optima, BMG Labtech, Offenburg, Germany) set at excitation and emission wavelengths of 410 and 520 nm, respectively. Release of interleukin-8 (IL-8 or CXCL8), which is a typical marker for inflammation, was quantified in the medium of the apical side and the basolateral side of the Caco-2 transwell inserts in response to the treatments. CXCL8 concentrations were measured by using the human IL-8 ELISA assay (BD Biosciences, Pharmingem, San Diego, CA, USA) according to manufacturer's instructions. For more details on materials and methods see Akbari et al, 2016, Eur J Nutr. 56(5):1919-1930.
Barrier function experiments were performed in a similar way as in example 2 using the following concentrations of Vivinal GOS (VGOS): 0 (Control), 0.25 wt % (VGOS 0.25), 0.5 wt % (VGOS 0.5), 0.75 wt % (VGOS 0.75), 1 wt % (VGOS 1), 1.5 wt % (VGOS 1.5) and 2 wt % (VGOS 2). For TOS concentrations of 0.25 wt % (TOS 0.25) and 0.5 wt % (TOS 0.5) were tested.

[2] = test system: Caco-2 cell monolayer; assay: Lucifer yellow (LY) paracellular flux across Caco-2 monolayers after DON-induced impairment; settings: GL 0.75 wt %, 24 h pretreatment, then DON 4.2 M 24 h; FIGS. 1C, 1D
Description: as §1, with “USA). […]” for “USA).”
(§3) Measurements of the transepithelial electrical resistance (TEER) and lucifer yellow (LY) permeability were conducted to investigate barrier integrity. […] Results are expressed as a percentage of the initial value. For paracellular tracer flux assay the membrane impermeable lucifer yellow (LY) (Sigma, St Luis, MO, USA) was added in a concentration of 16 μg/ml to the apical compartment in the transwell plate for 4 h, and the paracellular flux was determined by measuring the fluorescence intensity in the basolateral compartment with a spectrophotofluorimeter (FLUOstar Optima, BMG Labtech, Offenburg, Germany) set at excitation and emission wavelengths of 410 and 520 nm, respectively. […]

[3] = test system: IL-8 (CXCL8) release by Caco-2 cells; assay: DON-induced IL-8 (CXCL8) release by Caco-2 cells, ELISA; settings: DON alone 4.2 M, 24 h
Description: as §2, §3

[4] = test system: Caco-2 cells; assay: Viability of Caco-2 cells exposed to DON; settings: DON 4.2 M in complete cell medium, apical and basolateral
Description: as §2

[5] = GL 0.75 wt %, 24 h pretreatment, then DON 4.2 M 24 h

Q: How did the “effect on DON-induced loss of epithelial barrier integrity (TEER and LY flux)” value (shortened to “effect on DON-induced loss”) [1, 5] turn out when `OC[C@H]1O[C@@H](O[C@@H]2[C@H](O)[C@@H](O)[C@H](O[C@H]3[C@H](O)[C@@H](O)C(O)O[C@@H]3CO)O[C@@H]2CO)[C@H](O)[C@@H](O)[C@H]1O` (stereo partly drawn) [beta4′-GL, Gal (beta 1-4)-Gal (beta 1-4)-Glc] was run?
A: Its value is “did not show a significant effect”.

Q: Which “concentration of beta3′-GL in TOS at which the barrier effect is observed” value ([1]; Caco-2, DON challenge, beta3′-GL as part of TOS) does the source give for “Gal (beta 1-3)-Gal (beta 1-4)-Glc [beta3′-GL]” here?
A: The value was “lower than 0.17 wt %”.

Q: What about the “effect on DON-induced loss” value [1, 5] of the same molecule?
A: Its value is “prevented the DON-induced loss of epithelial barrier integrity”.

Q: And the “TEER after DON challenge” value ([1]; GL 0.75 wt %, 24 h pretreatment, then DON 4.2 M 24 h, FIGS. 1A, 1B)?
A: The value was “increased TEER values”.

Q: What about the “effect on DON-induced loss” value ([1]; GL 0.75 wt %, 24 h pretreatment, then DON 4.2 M 24 h, listed as beta1,3′-galactosyllactose) of the same molecule?
A: Its value is “prevented loss of epithelial barrier integrity to a much higher extent than other galactosyl-lactoses”.

Q: What about the “LY flux after DON challenge” value [2] of the same molecule?
A: The value was “reduction in the DON-affected LY flux”.

Q: For `CC1=C[C@H]2O[C@@H]3[C@H](O)C[C@](C)([C@@]2(CO)[C@H](O)C1=O)[C@]31CO1` [DON, deoxynivalenol], which “CXCL8 (IL-8) release” value [3] is on record?
A: Its value is “increased CXCL8 (IL-8) release”.

Q: And the “viability of the Caco-2 cells” value [4]?
A: Its value is “did not affect the viability”.

Q: With `OC[C@H]1O[C@@H](OC[C@H]2O[C@@H](O[C@H]3[C@H](O)[C@@H](O)C(O)O[C@@H]3CO)[C@H](O)[C@@H](O)[C@H]2O)[C@H](O)[C@@H](O)[C@H]1O` (stereo partly drawn) [beta6′-GL, Gal (beta 1-6)-Gal (beta 1-4)-Glc] as the molecule, how does the “effect on DON-induced loss” value [1, 5] read?
A: Its value is “did not show a significant effect”.

Q: Which “effect on DON-induced loss” value [1, 5] does the source give for `OC[C@H]1O[C@H](O[C@H]2[C@@H](O)[C@@H](CO)O[C@@H](O[C@H]3[C@H](O)[C@@H](O)C(O)O[C@@H]3CO)[C@@H]2O)[C@H](O)[C@@H](O)[C@H]1O` (stereo partly drawn) [alpha3′-GL, Gal (alpha 1-3)-Gal (beta 1-4)-Glc] here?
A: Its value is “did not prevent the DON-induced disrupted intestinal barrier”.

From patent US12508273B2, “Beta-1,3′-galactosyllactose for the treatment of gut barrier function diseases” (N.V. Nutricia, priority 2019, dated 2025)
